Test results reported in patent US12692223B2, “Phenyl-sulfamoyl-benzoic acid derivatives as ERAP1-modulators” (GREY WOLF THERAPEUTICS LIMITED, priority 2021, dated 2026).

The compounds below were run against T1, ERAP1 (Homo sapiens, UniProt Q9NZ08) (assay: ERAP1 mediated hydrolysis of an amide substrate measured in a biochemical system (10-mer inhibition assay)). Settings: purified ERAP1(37-941)-10His; 10-mer substrate; 23° C. for 1 h; excitation 279 nm, emission 355 nm; read-out: IC50 vs Decapeptide WRVYEKC(Dnp)ALK-acid (where Dnp is Dinitrophenyl maleimide) (10-mer).
T1 construct: Purified ERAP1(37-941)-10His (ERAP1)
Protocol: Biological Assay 1: ERAP1 Mediated Hydrolysis of an Amide Substrate Measured in a Biochemical System
• 1× Assay buffer (AB): 25 mM Bis-tris propane, 0.05% w/v • Hydroxypropylmethylcellulose pH 7.75 made with Optima grade water • Decapeptide WRVYEKC(Dnp)ALK-acid (where Dnp is Dinitrophenyl maleimide) (10-mer) • L-Leucine 7-amido-4-methylcoumarin (L-AMC) • Purified ERAP1(37-941)-10His (ERAP1) Assay Procedure:
12.5 μL ERAP1 enzyme in 1×AB was combined with 250 nL test compound in DMSO. 12.5 μL of either 240 μM L-AMC in 1×AB or 100 μM 10-mer in 1×AB was added to the reaction and incubated at 23° C. for 1 h. For detection, plates were read at excitation 365 nm and emission 442 nm (L-AMC) or excitation 279 nm and emission 355 nm (10-mer). Compound IC50 was determined using a 4-parameter equation.

T1 sequence (Q9NZ08 37-941): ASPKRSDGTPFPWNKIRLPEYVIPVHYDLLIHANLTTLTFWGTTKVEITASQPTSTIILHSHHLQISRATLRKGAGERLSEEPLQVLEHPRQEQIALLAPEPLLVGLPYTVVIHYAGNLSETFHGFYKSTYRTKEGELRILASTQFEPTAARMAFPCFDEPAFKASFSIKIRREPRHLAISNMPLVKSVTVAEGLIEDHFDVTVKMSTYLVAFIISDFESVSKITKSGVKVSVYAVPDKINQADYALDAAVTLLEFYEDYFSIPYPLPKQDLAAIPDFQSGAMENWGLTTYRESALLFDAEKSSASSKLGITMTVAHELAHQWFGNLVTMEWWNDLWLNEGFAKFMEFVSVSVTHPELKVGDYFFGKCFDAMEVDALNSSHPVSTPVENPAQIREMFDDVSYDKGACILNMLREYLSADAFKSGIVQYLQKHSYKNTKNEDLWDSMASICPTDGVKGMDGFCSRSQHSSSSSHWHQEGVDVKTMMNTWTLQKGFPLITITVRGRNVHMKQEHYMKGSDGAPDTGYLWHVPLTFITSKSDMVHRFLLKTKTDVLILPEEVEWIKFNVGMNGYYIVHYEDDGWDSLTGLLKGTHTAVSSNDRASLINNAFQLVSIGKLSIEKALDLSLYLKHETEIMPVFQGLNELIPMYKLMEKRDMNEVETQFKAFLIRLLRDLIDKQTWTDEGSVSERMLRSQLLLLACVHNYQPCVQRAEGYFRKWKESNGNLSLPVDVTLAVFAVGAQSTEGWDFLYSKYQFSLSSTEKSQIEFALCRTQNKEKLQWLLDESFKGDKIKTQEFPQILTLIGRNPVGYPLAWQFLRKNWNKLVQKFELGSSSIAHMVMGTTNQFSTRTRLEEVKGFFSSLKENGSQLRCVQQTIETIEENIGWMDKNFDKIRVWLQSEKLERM

IC50, > 5 nM:
C#CC1CCCC1Oc1cc(Cl)c(C#N)cc1NS(=O)(=O)c1cc(C(=O)O)ccc1C1CC1 (single isomer, unassigned) [Example 116, 3-(N-(4-chloro-5-cyano-2-((trans-2-ethynylcyclopentyl)oxy)phenyl)sulfamoyl)-4-cyclopropylbenzoic acid]
C#CC1CCCC1Oc1cc(Cl)c(C#N)cc1NS(=O)(=O)c1cc(C(=O)O)ccc1C1CC1 (single isomer, unassigned) [Example 127, 3-(N-(4-chloro-5-cyano-2-((cis-2-ethynylcyclopentyl)oxy)phenyl)sulfamoyl)-4-cyclopropylbenzoic acid]
N#Cc1cc(NS(=O)(=O)c2cc(C(=O)O)ccc2C2CC2)c(OC2CCC2O)cc1Cl (single isomer, unassigned) [Example 129, 3-(N-(4-chloro-5-cyano-2-(trans-2-hydroxycyclobutoxy)phenyl)sulfamoyl)-4-cyclopropylbenzoic acid]
N#Cc1cc(NS(=O)(=O)c2cc(C(=O)O)ccc2C2CC2)c(OC2CCC2O)cc1Cl (single isomer, unassigned) [Example 135, 3-(N-(4-chloro-5-cyano-2-(cis-2-hydroxycyclobutoxy)phenyl)sulfamoyl)-4-cyclopropylbenzoic acid]
COC1CCC1Oc1cc(Cl)c(C#N)cc1NS(=O)(=O)c1cc(C(=O)O)ccc1C1CC1 (single isomer, unassigned) [Example 139, 3-(N-(4-chloro-5-cyano-2-(trans-2-methoxycyclobutoxy)phenyl)sulfamoyl)-4-cyclopropylbenzoic acid]
COc1ccc(C(=O)O)cc1S(=O)(=O)Nc1cc(C(F)(F)F)ccc1OC1CCCC1 [Example 2, 3-(N-(2-(cyclopentyloxy)^−5-(trifluoromethyl)phenyl)sulfamoyl)-4-methoxybenzoic acid]
COc1ccc(C(=O)O)cc1S(=O)(=O)Nc1cc(C(F)(F)F)ccc1OC1CCCCC1 [Example 3, 3-(N-(2-(cyclohexyloxy)^−5-(trifluoromethyl)phenyl)sulfamoyl)-4-methoxybenzoic acid]

IC50, < 1 nM:
CC1CC(Oc2cc(Cl)c(C#N)cc2NS(=O)(=O)c2cc(C(=O)O)ccc2C2CC2)C1 (single isomer, unassigned) [Example 114, 3-(N-(4-chloro-5-cyano-2-(3-methylcyclobutoxy)phenyl)sulfamoyl)-4-cyclopropylbenzoic acid]
CC1CC(Oc2cc(Cl)c(C#N)cc2NS(=O)(=O)c2cc(C(=O)O)ccc2C2CC2)C1 (single isomer, unassigned) [Example 115, 3-(N-(4-chloro-5-cyano-2-(3-methylcyclobutoxy)phenyl)sulfamoyl)-4-cyclopropylbenzoic acid]
C#CC1CCCC1Oc1cc(Cl)c(C#N)cc1NS(=O)(=O)c1cc(C(=O)O)ccc1C1CC1 (single isomer, unassigned) [Example 117, 3-(N-(4-chloro-5-cyano-2-((trans-2-ethynylcyclopentyl)oxy)phenyl)sulfamoyl)-4-cyclopropylbenzoic acid]
CC1CCC1Oc1cc(Cl)c(C#N)cc1NS(=O)(=O)c1cc(C(=O)O)ccc1C1CC1 (single isomer, unassigned) [Example 120, 3-(N-(4-chloro-5-cyano-2-(2-methylcyclobutoxy)phenyl)sulfamoyl)-4-cyclopropylbenzoic acid]
CC1CCC1Oc1cc(Cl)c(C#N)cc1NS(=O)(=O)c1cc(C(=O)O)ccc1C1CC1 (single isomer, unassigned) [Example 121, 3-(N-(4-chloro-5-cyano-2-(2-methylcyclobutoxy)phenyl)sulfamoyl)-4-cyclopropylbenzoic acid]
CC1CCC1Oc1cc(Cl)c(C#N)cc1NS(=O)(=O)c1cc(C(=O)O)ccc1C1CC1 (single isomer, unassigned) [Example 123, 3-(N-(4-chloro-5-cyano-2-(2-methylcyclobutoxy)phenyl)sulfamoyl)-4-cyclopropylbenzoic acid]
C#CC1CCCC1Oc1cc(Cl)c(C#N)cc1NS(=O)(=O)c1cc(C(=O)O)ccc1C1CC1 (single isomer, unassigned) [Example 126, 3-(N-(4-chloro-5-cyano-2-((cis-2-ethynylcyclopentyl)oxy)phenyl)sulfamoyl)-4-cyclopropylbenzoic acid]
N#Cc1cc(NS(=O)(=O)c2cc(C(=O)O)ccc2C2CC2)c(OC2CCC2O)cc1Cl (single isomer, unassigned) [Example 128, 3-(N-(4-chloro-5-cyano-2-(trans-2-hydroxycyclobutoxy)phenyl)sulfamoyl)-4-cyclopropylbenzoic acid]
N#Cc1cc(NS(=O)(=O)c2cc(C(=O)O)ccc2C2CC2)c(OC2CCC2C2CC2)cc1Cl (single isomer, unassigned) [Example 131, 3-(N-(4-chloro-5-cyano-2-(2-cyclopropylcyclobutoxy)phenyl)sulfamoyl)-4-cyclopropylbenzoic acid]
N#Cc1cc(NS(=O)(=O)c2cc(C(=O)O)ccc2C2CC2)c(OC2CCC2O)cc1Cl (single isomer, unassigned) [Example 136, 3-(N-(4-chloro-5-cyano-2-(csi-2-hydroxycyclobutoxy)phenyl)sulfamoyl)-4-cyclopropylbenzoic acid]
COC1CCC1Oc1cc(Cl)c(C#N)cc1NS(=O)(=O)c1cc(C(=O)O)ccc1C1CC1 (single isomer, unassigned) [Example 138, 3-(N-(4-chloro-5-cyano-2-(trans-2-methoxycyclobutoxy)phenyl)sulfamoyl)-4-cyclopropylbenzoic acid]
N#Cc1cc(NS(=O)(=O)c2cc(C(=O)O)ccc2C2CC2)c(OC2CCC(F)(F)C2)cc1Cl (single isomer, unassigned) [Example 140, 3-(N-(4-chloro-5-cyano-2-((3,3-difluorocyclopentyl)oxy)phenyl)sulfa-moyl)-4-cyclopropylbenzoic acid]
N#Cc1cc(NS(=O)(=O)c2cc(C(=O)O)ccc2C2CC2)c(OC2CCC(F)(F)C2)cc1Cl (single isomer, unassigned) [Example 141, 3-(N-(4-chloro-5-cyano-2-((3,3-difluorocyclopentyl)oxy)phenyl)sulfa-moyl)-4-cyclopropylbenzoic acid]
CO[C@@H]1CCC[C@@H]1Oc1cc(Cl)c(C#N)cc1NS(=O)(=O)c1cc(C(=O)O)ccc1C1CC1 (single isomer, unassigned) [Example 142, 3-(N-(4-chloro-5-cyano-2-((cis-2-methoxycyclopentyl)oxy)phenyl)sulfa-moyl)-4-cyclopropylbenzoic acid]
COC1CCC1Oc1cc(Cl)c(C#N)cc1NS(=O)(=O)c1cc(C(=O)O)ccc1C1CC1 (single isomer, unassigned) [Example 144, 3-(N-(4-chloro-5-cyano-2-(cis-2-methoxycyclobutoxy)phenyl)sulfamoyl)-4-cyclopropylbenzoic acid]
N#Cc1cc(NS(=O)(=O)c2cc(C(=O)O)ccc2C2CC2)c(OC2CCCC2)cc1Cl [Example 1, 3-(N-(4-chloro-5-cyano-2-(cyclopentyloxy)phenyl)sulfamoyl)-4-cyclopropylbenzoic acid]

IC50, 1 to 5 nM:
CC1CCC1Oc1cc(Cl)c(C#N)cc1NS(=O)(=O)c1cc(C(=O)O)ccc1C1CC1 (single isomer, unassigned) [Example 122, 3-(N-(4-chloro-5-cyano-2-(2-methylcyclobutoxy)phenyl)sulfamoyl)-4-cyclopropylbenzoic acid]
N#Cc1cc(NS(=O)(=O)c2cc(C(=O)O)ccc2C2CC2)c(OC2CCC2C2CC2)cc1Cl (single isomer, unassigned) [Example 130, 3-(N-(4-chloro-5-cyano-2-(2-cyclopropylcyclobutoxy)phenyl)sulfamoyl)-4-cyclopropylbenzoic acid]
N#Cc1cc(NS(=O)(=O)c2cc(C(=O)O)ccc2C2CC2)c(OC2CCC2C2CC2)cc1Cl (single isomer, unassigned) [Example 132, 3-(N-(4-chloro-5-cyano-2-(2-cyclopropylcyclobutoxy)phenyl)sulfamoyl)-4-cyclopropylbenzoic acid]
N#Cc1cc(NS(=O)(=O)c2cc(C(=O)O)ccc2C2CC2)c(OC2CCC2C2CC2)cc1Cl (single isomer, unassigned) [Example 133, 3-(N-(4-chloro-5-cyano-2-(2-cyclopropylcyclobutoxy)phenyl)sulfamoyl)-4-cyclopropylbenzoic acid]
CO[C@@H]1CCC[C@@H]1Oc1cc(Cl)c(C#N)cc1NS(=O)(=O)c1cc(C(=O)O)ccc1C1CC1 (single isomer, unassigned) [Example 143, 3-(N-(4-chloro-5-cyano-2-((cis-2-methoxycyclopentyl)oxy)phenyl)sulfa-moyl)-4-cyclopropylbenzoic acid]
COC1CCC1Oc1cc(Cl)c(C#N)cc1NS(=O)(=O)c1cc(C(=O)O)ccc1C1CC1 (single isomer, unassigned) [Example 145, 3-(N-(4-chloro-5-cyano-2-(cis-2-methoxycyclobutoxy)phenyl)sulfamoyl)-4-cyclopropylbenzoic acid]
O=C(O)c1ccc(C2CC2)c(S(=O)(=O)Nc2cc(C(F)(F)F)ccc2OC2CCCC2)c1 [Example 4, 3-(N-(2-(cyclopentyloxy)^−5-(trifluoromethyl)phenyl)sulfamoyl)-4-cyclopropylbenzoic acid]
